# According to patent publication US11167006B2 (Shanghai Tianci Life Science Development Co., Ltd., priority 2016, dated 2021):
# Entries after “also recorded” stand apart in the source; their conditions may differ. Square brackets hold non-standard residues; d marks the D form. Peptide text beside a SMILES is read from it. NMeF = CN[C@@H](Cc1ccccc1)C(=O)O
# Assays:
# Assay type in all cases: in vivo, mouse
# [1] = test system: postoperative pain in mice; experiment: Postoperative pain model (electronic Von Frey); conditions: mechanical pain threshold
# Source text: The postoperative pain in mice was detected mainly by an electronic Von Frey tenderness instrument. The basic pain threshold of normal mice was first determined, and then the mice were anesthetized with isoflurane. With the back facing up, the right hind paw of the mouse was fixed and disinfected with iodine solution. A 5 mm longitudinal incision was made with a No. 11 blade at 2 mm from the ankle to expose the plantaris, blood vessels and fascia, and the wound was sutured using a 4-0 surgical suture and a small suture needle, and the wound is coated with erythromycin ointment. The mechanical pain sensitivity value of the surgical foot of the mice was measured 6 h after the surgery, and then compound 9 was intrathecally or intraperitoneally given, and the mechanical pain threshold at different time points after administration were recorded.
# (§1) The experimental data were expressed as mean±standard error (Means±S.E.M.), and the data for differences between groups treated with different drug concentrations were analyzed by one-way ANOVA (Bonferroni test in one-way ANOVA) for statistics and analysis, ***P<0.001 represents that there was a significant difference between the MPE value of the drug-treated group and that of the saline group.
# First, the maximum analgesic effect (MPE) was calculated, MPF. […]
# mice [2] = experiment: Conditional position preference test (CPP); conditions: subcutaneous 10 mg/kg
# Method: The conditional position preference experimental device is a closed device (45×20×20 cm) assembled from transparent plexiglass plates. Two 20×20×20 cm conditional preference boxes are located at both ends of the device, with a small compartment 5×20×20 cm having a passage (5×5×5 cm) connected in the middle. On the first day of the experiment, the passage was kept open, the mice was placed into the device for 15 min, and the mice that had been explored for more than 9 min in any of the preference boxes were excluded. […] On day 5, the passage was kept opened again to ensure that the mice were free to enter into the two preference boxes, and the time that the mice stayed in the drug matching preference box within 15 minutes of the total time was recorded.
# The experimental relevant data were expressed as mean±standard error (Means±S.E.M.), and the conditional position preference score represents the time spent on the drug matching preference box on day 5 of each mouse minus the time on the first day in this preference box. Differences between groups treated with different drugs in CPP trials were analyzed by one-way ANOVA (Tukey HSD test in one-way ANOVA) for data statistics and analysis.
# [3] = test system: inflammatory pain in mice; experiment: Inflammatory pain model (Carrageenan or CFA)
# Method: Inflammatory pain in mice was measured using a hot stinging apparatus and an electronic Von Frey tenderness instrument, and the basal pain threshold of normal mice was firstly determined. Then 20 μl of 2% Carrageenan solution or CFA solution was injected subcutaneously into the mouse paw. The thermal and mechanical pain sensitivity value values of the injected paw in mice were tested after 24 hours (Carrageenan) or 4 days (CFA), and then compound 9 was administered into lateral ventricle, intrathecally or subcutaneously, and the pain threshold at different time points after administration were recorded.
# as §1, with “pain threshold” for “MPE”
# [4] = test system: movement coordination of mice; experiment: Movement coordination, RotaRod; conditions: subcutaneous 10 mg/kg
# Method: The movement coordination of the mice was detected by a ZB-200 RotaRod System. The mice were first trained for two days at a rotational speed of 16 r/min and continuously trained three times a day. The maximum movement time for each training was set to 300 s, and mice with movement time less than 180 s were excluded after the training. On day 3 of the experiment, mice were tested for movement coordination at 10, 20, 30 and 40 min after subcutaneous administration of compound 9.
# The experimental data were expressed as mean±standard error (Means±S.E.M.), and the differences between drug treatment groups were analyzed by one-way ANOVA (Dunnett test in one-way ANOVA) for data statistics and analysis.
# mice [5] = experiment: Naloxone withdrawal test; conditions: s.c. at 8 hours intervals 20, 40, 60, 80, 100, 100, 100 mg/kg; naloxone 1 mg/kg; 30 minutes
# [6] = test system: visceral pain induced by intraperitoneal injection of acetic acid solution in mice; experiment: Acetic acid writhing visceral pain model
# Method: The mice were placed in a transparent polymethyl methacry late box (20×20×30 cm) and adapted to the environment for 10-15 min; after the adaptation, compound 9 was administered intrathecally, intraperitoneally or subcutaneously to the mice. After 5 min, the mice were intraperitoneally injected with 10 ml/kg of 0.6% acetic acid solution, 5 min. after the intraperitoneal injection of acetic acid solution, the writhing response of the mice was recorded for 10 min. The mice developed characteristic reactions such as twisting of the trunk, concave in the abdomen, elevation of the buttocks and extension of the hind limbs, which were recorded as a writhing reaction.
# as §1, with “experimental data was expressed by MPE (maximum possible effect), MPE (%)=100×[(the number of writhing bodies in the physiological saline group− the number of writhing bodies in the drug group)/the number of writhing bodies in the physiological saline group]. The relevant MPE” for “experimental”, “(Means±S.E.M.),” for “(Means±S.E.M.), and”
compound,measurement,setting,value
"C[C@@H](NC(=O)[C@@H](N)Cc1ccc(O)cc1)C(=O)NCC(=O)N(C)[C@@H](Cc1ccccc1)C(=O)NCC(=O)N1CCC[C@H]1C(=O)N[C@@H](CCC(N)=O)C(=O)N[C@@H](CCCNC(=N)N)C(=O)N[C@@H](Cc1ccccc1)C(N)=O [Compound 9, Tyr-D-Ala-Gly-NMe-Phe-Gly-Pro-Gln-Arg-Phe-NH2] (H-Y[dA]G[NMeF]GPQRF-NH2)",ED50 value of analgesia for postoperative pain,[1]; intraperitoneal,26.15 (22.62-30.23) mg/kg
same,ED50 value of analgesia for postoperative pain,[1]; intrathecal,8.63 (6.70-11.11) pmol
same,conditional positional preference,mice [2],produced significant conditional positional preference; also recorded: lower degree of preference than morphine
same,"analgesic ED50 value, inflammatory pain",[3]; intrathecal (FIG. 15: carrageenan-induced),2.98 (2.50-3.54) pmol
same,"analgesic ED50 value, inflammatory pain",[3]; lateral ventricle (FIG. 14: CFA-induced),5.20 (2.06-13.10) pmol
same,"analgesic ED50 value, inflammatory pain",[3]; subcutaneous (FIG. 16: carrageenan-induced),3.24 (2.81-3.74) mg/kg
same,effect on movement coordination,[4],did not significantly affect movement coordination
same,average number of jumps after naloxone withdrawal,mice [5],11.63
same,ED50 value (95% confidence interval),[6]; intraperitoneal (i.p.),0.721 (0.594 to 0.875) mg/kg
same,ED50 value (95% confidence interval),[6]; intrathecal (i.t.),0.657 (0.595 to 0.727) pmol
same,ED50 value (95% confidence interval),[6]; subcutaneous (s.c.),0.789 (0.702 to 0.887) mg/kg
